Measurements from patent US9035022B2, “Cyclic CRF antagonist peptides” (Salk Institute for Biological Studies, priority 2010, dated 2015).

Test system: adrenalectomized (ADX) rats
Assay: In vivo assay of ACTH secretion in adrenalectomized (ADX) rats
Design: species or system rat
Protocol: The in vivo assays which are employed to test these CRF antagonists use adrenalectomized (ADX) rats. […] Their diet is supplemented with 0.9% NaCl in the drinking water and with oranges. Two days prior to the experiments, the animals are equipped with jugular cannulae, as described in C. […] On the morning of the experiments, the i.v. cannulae are connected to a line filled with heparinized saline, and the rats are placed in individual buckets and left undisturbed for 2 hours. For the experiment, a first blood sample of 0.3 mL is withdrawn, the test solution is injected (in an 0.2-0.5 mL volume), and subsequent blood samples are obtained at about 15, 45, 90 and 120 minutes. The blood samples are centrifuged, and the separated plasma are kept frozen (−20° C.) until assayed for ACTH values. Plasma ACTH levels are measured as described in C.

| Substance | inhibition of secretion of ACTH and corticosterone (general procedure of Example I) | inhibition of secretion of ACTH and β-END-LI (administration of the peptide) |
| --- | --- | --- |
| [Aib^19,24,32, Orn^25]-Astressin B [V] | inhibits the secretion of ACTH and corticosterone |  |
| [Tyr-Asp^1, Aib^19,24,32]-Astressin B [IV] |  | inhibits the secretion of ACTH and β-END-LI |
